Series [1] deals with T1, MAGL (Homo sapiens, UniProt Q99685).
T1 sequence (Q99685 1-303): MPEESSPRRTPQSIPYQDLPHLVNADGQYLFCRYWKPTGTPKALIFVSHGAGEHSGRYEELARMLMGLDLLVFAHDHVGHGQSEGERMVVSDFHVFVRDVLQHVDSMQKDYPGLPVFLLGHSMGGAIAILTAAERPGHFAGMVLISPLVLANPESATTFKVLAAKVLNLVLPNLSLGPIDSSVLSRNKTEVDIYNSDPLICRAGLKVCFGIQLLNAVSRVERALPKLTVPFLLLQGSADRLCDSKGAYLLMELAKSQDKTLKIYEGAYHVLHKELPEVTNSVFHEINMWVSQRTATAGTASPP
The series can be described thus: In vitro competitive substrate hydrolysis enzyme activity assay (pNPA), HEK293 cell lysates. The series is classed as biochemical. Further details: expressed in transfected cells; host or cells: HEK293. The note with it: HEK293 lysate. The gist of the method: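 Lysates of HEK293 cells expressing human MAGL (~1.2 μg protein) preincubated 30 min at 25° C with inhibitor in 50 mM HEPES pH 7.0, 200 mM KCl, 1 mM EDTA. pNPA substrate then added (2× stock 2.5 mM), and A405 followed for 20 min at 25° C. Rates normalized to DMSO, and IC50 from 4-parameter fit.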

The target of series [2] is T1, MAGL. Put plainly: In vitro competitive activity-based protein profiling, PC3 human cell membrane proteomes. The conditions noted are these: human PC3 membrane proteome. In kind it is biochemical. Further details: endogenous in cells; host or cells: PC3 human cells (membrane proteome). The gist of the method: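 Competitive ABPP in PC3 membrane proteome (2.0 mg/mL protein): inhibitors preincubated 30 min at 37° C, then JW912-Bodipy probe added for 30 min at room temperature. MAGL band fluorescence after SDS-PAGE normalised to DMSO; IC50 from 4-parameter sigmoidal fit.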

In series [3] the test system is maximal electroshock seizure threshold (MEST) model. The series can be described thus: Maximal electroshock seizure threshold (MEST) model in the rat. The note with it: 10 mg/kg p.o., 240 min pre-treatment. The series is classed as in vivo. How it is done:
In the MEST model, a low-intensity electrical current of high frequency and short duration is applied to induce tonic convulsions.
Animals were randomly assigned to vehicle, compound treatment or Lamotrigine dose groups. Animals were dosed at 5 mL/kg according to treatment groups (n=12 or 16/group), with either vehicle (0.5% MC) p.o. for Example 6, vehicle (10% HP-b-CD) for Example 8, test compound at 10 mg/kg p.o. 240 min pre-treatment time, or Lamotrigine p.o. 360 min pre-treatment time. Rats were individually assessed for production of a tonic hind limb extensor seizure following a single corneally delivered electroshock of 0.3 second duration, using an ‘up and down method’ of shock titration (Kimball A W et al., 1957). Thus, the first rat within a treatment group was given a shock at the expected or estimated CC50 current (current producing tonic hind limb extensor seizures in 50% of animals). […] This procedure was continued for all rats within a treatment group. Induction of seizure was measured as an all-or-nothing effect scored as either present (+) or absent (0) for each animal. […]
Significant differences between drug-treated animals and controls were assessed according to Litchfield and Wilcoxon (1949) or One-Way ANOVA followed by Dunnett's multiple comparisons test.

Series [4] relates to rat formalin paw model of inflammatory pain. The series can be described thus: Rat formalin paw model of inflammatory pain. In kind it is in vivo. The note with it: 0.6 mg/kg, 3 mg/kg and 10 mg/kg oral, 4 h pre-test; early and/or late phases; vs vehicle. How it is done:
In the rat formalin paw model formalin is administered into the right […] of a rat in order to induce pain (observed by hind limb licking duration and frequency).
Male Sprague Dawley rats were divided into three cohorts to enable testing in the Laboras™ equipment to be carried out over three days in a balanced design to give treatment groups of 10. On the day of the study, male Sprague Dawley rats were weighed, tail marked and dosed orally with vehicle, test compound (0.1, 0.3, 0.6, 1, 3 or 10 mg/kg) or pregabalin (30 mg/kg) 4 h pre-test using a 5 mL/kg dosing volume. For Example 6 the vehicle used was 0.5% methylcellulose in water and for Example 8 the vehicle used was 20% HP-b-CD. Up to six animals were dosed at a time. After 4 h, rats received an intraplantar injection of 50 μL of a 2.5% v/v formalin solution into the right hind paw. Rats were immediately placed into the Laboras™ cages and data acquisition started. The primary measures recorded by Laboras™ for the formalin paw model are hind limb licking duration and frequency. Locomotion is also reported as maximum speed, average speed when moving or over the whole-time bin and distance travelled. After 40 min, when data acquisition was complete, rats were removed from the cages.
On removal from the test cages, rats were anaesthetised with the gaseous anaesthetic isoflurane (5% v/v isoflurane in oxygen) and blood samples were collected by cardiac puncture. Brains were then removed, rinsed in phosphate buffered saline (PBS), hemi-sected and frozen separately in liquid nitrogen.
Data were analysed with Statistica software (TIBCO, USA version 11.1). All data are expressed as means±standard error of the mean (sem) to one decimal place. […] Time course data were analysed by repeated measures analysis of variance (ANOVA) followed by one-way ANOVAs at each time point and subsequent Dunnett's post hoc tests. […]

A word on the IC50: it is the concentration needed to halve the response being measured. Higher therefore signals weaker potency.

Regarding `O=C(Nc1cccnn1)[C@H]1CC12CCN(C(=O)OC(C(F)(F)F)C(F)(F)F)CC2` [Example 6, 1,1,1,3,3,3-Hexafluoropropan-2-yl (S)-1-(pyridazin-3-ylcarbamoyl)-6-azaspiro[2.5]octane-6-carboxylate], the IC50 was 0.00826 µM in series [1] and 0.0046 µM in series [2]. The “anticonvulsant activity in the MEST (seizure threshold CC50)” value in series [3] is recorded as “anticonvulsant activity”. Also, in series [4], the “measure of spontaneous pain (hind limb licking frequency)” value is listed as “statistically significant reduction”.

Values taken from patent US20240018120A1, “MAGL INHIBITORS” (H. LUNDBECK A/S, priority 2020, published 2024).
